# Reference: US4171312A, “Alkyl 7-[tetrahydro-4-(3-hydroxy-1-octenyl)-2,6-dioxo-4H-cyclopenta-1,3-dioxol -5-yl]-5-heptenoates” (G. D. Searle & Co., priority 1978, dated 1979)
# System: fecundity of hamsters
# Assay: standardized test for capacity to inhibit the fecundity of hamsters (implantation rate)
# Assay type: in vivo, Syrian golden hamsters
# Experimental: The contraceptive utility of the instant compounds is evident from the results of a standardized test for their capacity to inhibit the fecundity of hamsters. In this test, sexually-mature female Syrian golden hamsters weighing at least 105 g are mated; and to each of a group of 5 is administered, daily for 5 days beginning on the first day sperm appears in the vagina between 8:15 and 10:00 a.m., test compound dissolved or suspended in an inert vehicle. The initial daily dose is ordinarily 50 mg/kg in 0.2 ml of corn oil, subcutaneously or intragastrically. A group of such animals to which is likewise administered vehicle alone serves as controls. Approximately 48 hr. after the 5th dose, the animals are sacrificed and their uteri and ovaries inspected for implantation sites and corpora lutea. If the total number of the former divided by the total number of the later (i.e., the implantation rate) affords a value amounting to 0.5 or less, the compound is considered to inhibit fecundity in the foregoing test. The ED50 of such a compound is determined by repeating the test at appropriate doosage(s). Potency is expressed as the ratio of the ED50 of estrone to that of compound.
# [1] = mated female Syrian golden hamsters, 10 mg/kg subcutaneously in corn oil, daily for 5 days
smiles,measurement,setting,value
"CCCCC[C@H](O)/C=C/C1C(C/C=C\CCCC(=O)OC)C(=O)C2OC(=O)OC21 (stereo partly drawn) [Example 1, methyl 7-[tetrahydro-4-(3S-hydroxy-1E-octenyl)-2,6-dioxo-4H-cyclopenta-1,3-dioxol-5-yl]-5Z-heptenoate]",ED50,"Mesocricetus auratus, 120 h, mated female Syrian golden hamsters, daily for 5 days, read-out: ED50 (inhibition of fecundity)",5.6 mg/kg
same,implantation rate (total implantation sites divided by total corpora lutea),[1],0.16
same,inhibition of fecundity (implantation rate 0.5 or less),[1],inhibited fecundity
same,potency (ratio of the ED50 of estrone to that of compound),"relative to estrone, hamster fecundity test",approximately 1%
